SMILES | melting point [°C]
CC(C)(C)c1ccc(-c2[nH]c3nccnc3c2CCCO)cc1 [Example 26, 3-[6-(4-tert-Butyl-phenyl)-5H-pyrrolo[2,3-b]pyrazin-7-yl]-propan-1-ol] | 187 to 189
COc1ccc2[nH]cc(-c3cc4nccnc4[nH]3)c2c1 [Example 11, 6-(5-Methoxy-1H-indol-3-yl)-5H-pyrrolo[2,3-b]pyrazine] | 268 to 271
CCOC(=O)COc1cc(-c2cc3nccnc3[nH]2)ccc1OC [Example 27, [2-Methoxy-5-(5H-pyrrolo[2,3-b]pyrazin-6-yl)-phenoxy]acetic acid ethyl ester] | 183 to 184

More lines, now with the values ahead:

melting point [°C] | SMILES
247 to 248 | Cn1cc(-c2cc3cccnc3[nH]2)c2cc(N)ccc21 [Example 18, 1-Methyl-3-(1H-pyrrolo[2,3-b]pyridin-2-yl)-1H-indol-5-ylamine]
263 to 267 | COc1ccc2c(c1)c(-c1cc3nccnc3[nH]1)cn2CC(=O)N1CCOCC1 [Example 12, 2-[5-Methoxy-3-(5H-pyrrolo[2,3-b]pyrazin-6-yl)-indol-1-yl]-1-morpholin-4-yl-ethanone]
208 to 209 | c1cncc(OCCCn2cc(-c3cc4nccnc4[nH]3)c3ccccc32)c1 [Example 6, 6-{1-[3-(Pyridin-3-yloxy)-propyl]-1H-indol-3-yl}-5H-pyrrolo[2,3-b]pyrazine]

Reference: patent US7227020B2, “Azaindoles” (Aventis Pharma Limited, priority 1999, dated 2007)
